In ChEMBL document CHEMBL4680250, “Identification of tetracyclic lactams as NMDA receptor antagonists with potential application in neurological disorders” (Eur J Med Chem, 2020):

How the values were obtained:
Glutamate NMDA receptor [1] = assay: Antagonist activity at NMDAR in embryonic cultures of rat cortical neuron assessed as inhibition of NMDA-induced calcium influx preincubated for 10 mins followed by NMDA addition by Fluo-4/AM dye based fluorescence assay; assay type: tissue-based
Glutamate NMDA receptor [2] = assay: Antagonist activity at NMDAR in embryonic cultures of rat cortical neuron assessed as inhibition of NMDA-induced calcium influx at 30 uM preincubated for 10 mins followed by NMDA addition by Fluo-4/AM dye based fluorescence assay relative to control; assay type: tissue-based
[3] = Permeability of compound in PBS at pH 7.4 incubated for 120 mins by UV spectroscopy assay based PAMPA-BBB assay; assay type: ADME; conditions: read-out: permeability
HepG2 = assay: Cytotoxicity against human HepG2 cells assessed as reduction in cell viability by MTT assay; assay type: cell-based
HEK293 = assay: Cytotoxicity against HEK293 cells assessed as reduction in cell viability by MTT assay; assay type: cell-based; conditions: Homo sapiens
[4] = molecular target: Glutamate [NMDA] receptor; assay: Binding affinity to NMDAR (unknown origin); assay type: protein-complex assay, Homo sapiens

O=C1CC[C@@]2(c3ccc(F)cc3)O[C@@H]3Cc4ccccc4[C@@H]3N12
IC50 (Glutamate NMDA receptor [1]): 17 µM
IC50 (Glutamate NMDA receptor [2]; read-out: IC50): 56 µM
Papp at 2 h [3]: 24.2 ×10⁻⁶ cm/s
IC50 (HepG2): > 100 µM
IC50 (HEK293): > 100 µM

C[C@@H]1CC(=O)N2[C@H]3c4ccccc4C[C@@H]3O[C@@]12c1ccc(Cl)cc1
IC50 (Glutamate NMDA receptor [2]; read-out: IC50): 32 µM

C[C@H]1CC(=O)N2[C@H]3c4ccccc4C[C@H]3O[C@]12c1ccc(Cl)cc1
IC50 (Glutamate NMDA receptor [1]): 17 µM
IC50 (Glutamate NMDA receptor [2]; read-out: IC50): 80 µM
IC50 (HepG2): > 100 µM
IC50 (HEK293): > 100 µM

Cc1ccc([C@@]23CCC(=O)N2[C@H]2c4ccccc4C[C@H]2O3)cc1
IC50 (Glutamate NMDA receptor [1]): 24 µM
IC50 (Glutamate NMDA receptor [2]; read-out: IC50): 46 µM

C[C@H]1CC(=O)N2[C@H]3c4ccccc4C[C@@H]3O[C@@]12c1ccc(Cl)cc1
IC50 (Glutamate NMDA receptor [1]): 23 µM
IC50 (Glutamate NMDA receptor [2]; read-out: IC50): 62 µM

O=C1CC[C@]2(c3ccc(F)cc3)O[C@H]3Cc4ccccc4[C@@H]3N12
IC50 (Glutamate NMDA receptor [1]): 15 µM
IC50 (Glutamate NMDA receptor [2]; read-out: IC50): 61 µM
IC50 (HepG2): > 100 µM
IC50 (HEK293): > 100 µM

C[C@@H]1CC(=O)N2[C@H]3c4ccccc4C[C@H]3O[C@]12c1ccc(Cl)cc1
IC50 (Glutamate NMDA receptor [1]): 13 µM
IC50 (Glutamate NMDA receptor [2]; read-out: IC50): 69 µM
IC50 (HepG2): 34 µM
IC50 (HEK293): 46 µM

c1ccc2c(c1)C[C@H]1N[C@@H]2c2ccccc21
Ki [4]: 0.0372 µM

COc1ccc([C@@]23CCC(=O)N2[C@H]2c4ccccc4C[C@H]2O3)cc1
IC50 (Glutamate NMDA receptor [2]; read-out: IC50): 4 µM

CS(=O)(=O)c1ccc([C@@]23CCC(=O)N2[C@H]2c4ccccc4C[C@H]2O3)cc1
IC50 (Glutamate NMDA receptor [2]): Not Active

O=C1CC[C@@]2(c3ccc(Cl)cc3)O[C@@H]3Cc4ccccc4[C@@H]3N12
IC50 (Glutamate NMDA receptor [1]): 17 µM
IC50 (Glutamate NMDA receptor [2]; read-out: IC50): 82 µM
Papp at 2 h [3]: 19.2 ×10⁻⁶ cm/s
IC50 (HepG2): > 100 µM
IC50 (HEK293): > 100 µM

CC[C@@]1(c2ccccc2Cl)CCCCC1=O
Ki [4]: 0.659 µM

O=C1CC[C@]2(c3ccc(Cl)cc3)O[C@H]3Cc4ccccc4[C@@H]3N12
IC50 (Glutamate NMDA receptor [1]): 13 µM
IC50 (Glutamate NMDA receptor [2]; read-out: IC50): 65 µM
Papp at 2 h [3]: 15.8 ×10⁻⁶ cm/s
IC50 (HepG2): > 100 µM
IC50 (HEK293): > 100 µM

O=C1CC[C@@]2(c3ccc(Br)cc3)O[C@@H]3Cc4ccccc4[C@@H]3N12
IC50 (Glutamate NMDA receptor [1]): 16 µM
IC50 (Glutamate NMDA receptor [2]; read-out: IC50): 73 µM
Papp at 2 h [3]: 12.3 ×10⁻⁶ cm/s
IC50 (HepG2): > 100 µM
IC50 (HEK293): > 100 µM

O=C1CC[C@]2(c3ccc(Br)cc3)O[C@H]3Cc4ccccc4[C@@H]3N12
IC50 (Glutamate NMDA receptor [1]): 11 µM
IC50 (Glutamate NMDA receptor [2]; read-out: IC50): 66 µM
Papp at 2 h [3]: 11.2 ×10⁻⁶ cm/s
IC50 (HepG2): > 100 µM
IC50 (HEK293): > 100 µM

O=C1CC[C@@]2(c3ccccc3)O[C@H]3Cc4ccccc4[C@@H]3N12
IC50 (Glutamate NMDA receptor [2]; read-out: IC50): 29 µM

Cc1ccc([C@@]23CCC(=O)N2[C@H]2c4ccccc4C[C@H]2O3)cc1Cl
IC50 (Glutamate NMDA receptor [1]): 12 µM
IC50 (Glutamate NMDA receptor [2]; read-out: IC50): 63 µM
IC50 (HepG2): > 100 µM
IC50 (HEK293): > 100 µM

O=C1CCC[C@@]2(c3ccccc3)O[C@@H]3Cc4ccccc4[C@@H]3N12
IC50 (Glutamate NMDA receptor [2]; read-out: IC50): 13 µM

COc1ccc([C@@]23CCC(=O)N2[C@H]2c4ccccc4CC2O3)cc1F (single isomer, unassigned)
IC50 (Glutamate NMDA receptor [2]; read-out: IC50): 13 µM

Cc1ccc([C@]23CCC(=O)N2C2c4ccccc4C[C@@H]2O3)cc1Cl (single isomer, unassigned)
IC50 (Glutamate NMDA receptor [2]; read-out: IC50): 49 µM

N[C@@H](Cc1ccccn1)c1ccccc1 [LANICEMINE]
Ki [4]: 0.56 µM

c1ccc(C2(N3CCCCC3)CCCCC2)cc1 [PHENCYCLIDINE]
Ki [4]: 0.059 µM
